We go through 2 molecules from PMC8777605 (Pharmaceuticals, 2021).

“Also recorded” adds a separate entry of the source. Read-outs that look alike come from different tables or passages of the source.

A short description of series [1]: Cytotoxic assay. Type of series: cell-based. As to conditions: African green monkey, table title says Calu-3 cells, method says Vero cells. The method, then: All experiments were carried out at least three independent times and each data was analyzed from Prism GraphPad software 8.0 (Windows GraphPad Software, San Diego, CA, USA). The results were presented as mean ± standard deviation (SD).

Series [2] relates to SARS-CoV-2 gamma strain (P1, B.1.1.28).
The test system is the same in series [3]. In words: microbe, parasite or virus in culture. As to conditions: Severe acute respiratory syndrome coronavirus 2, Calu-3, 48 h.
Series [4] has as its target T1, SARS-CoV-2 main protease (M^pro) (Severe acute respiratory syndrome coronavirus 2, UniProt P0DTD1).
T1 construct: purchased BPS Bioscience #79955-1
The series is described as follows: biochemical. The method, then: (§1) Fluorescence signal was measured at an emission wavelength of 460 nm with excitation at 360 nm in a GloMax® (Promega, Madison, WI, USA) plate reader. Morrison’s inhibitory constant (Ki) was calculated by non-linear regression using GraphPad Prism 9. […] After fluorescence quantification, the Michaelis–Menten constant (Km) and maximum velocity (Vmax) were calculated by non-linear regression using GraphPad Prism 9. The value was presented as mean ± standard deviation (SD).

The test system of series [5] is SARS-CoV-2 gamma strain. Type of series: in vivo, K18-hACE2 mice.
For series [6], the system named is SARS-CoV-2 B.1 lineage. The series is described as follows: microbe, parasite or virus in culture. It is filed as cell-based.
The subject of series [7] is human platelet-poor plasma clotting. In words: Plasma clotting time (fibrin formation). As to conditions: three concentrations of ATV, Figure S3. The method, then:
Human blood samples were collected from healthy donors in 3.8% trisodium citrate (9:1, v/v), and platelet-poor plasma was obtained by centrifugation at 3000 rpm for 10 min. […] Time for clot formation was recorded in triplicates.

Series [8] is described as follows: Pharmacokinetics in plasma and lungs after oral dosing. Type of series: in vivo, Swiss–Webster mice. As to conditions: mice, 60 mg/kg oral. The method, then: Each treatment group had five animals. After these periods of times, total blood and lungs were collected. Plasma was obtained by blood centrifugation at 8000× g for 15 min. Time zero was obtained by analyzing the matrix pool (blood plasma) of untreated animals. The pharmacokinetic parameters of half-life (t1/2, h), time until maximum concentration is reached (tmax, h), maximum compound concentration (Cmax, ng/mL) and area under the curve (AUC, h.ng/mL) were determined. The experiments performed in this section were approved by the Committee on the Use of Laboratory Animals of the Oswaldo Cruz Foundation (CEUA-FIOCRUZ, license L003/21).

Series [9] deals with T2, SARS-CoV-2 papain-like protease (PL^pro) (Severe acute respiratory syndrome coronavirus 2, UniProt P0DTD1).
T2 construct: purchased BPS Bioscience #79995-1
In words: SARS-CoV-2 PL^pro enzymatic assay (BPS Bioscience kit). It is filed as biochemical. On the procedure:
as §1

As for `CCC(CC)COC(=O)[C@H](C)N[P@](=O)(OC[C@H]1O[C@@](C#N)(c2ccc3c(N)ncnn23)[C@H](O)[C@@H]1O)Oc1ccccc1` [RDV, remdesivir], half-maximal cytotoxicity in series [1] (CC50 at 3 days) was put at 512000 ± 30000 nM. Further, the “SI (CC50/EC50)” value in series [2] was determined as 4530. Moreover, the EC50 (usually the concentration giving half of the maximal effect) in [3] amounted to 113 ± 10 nM.
For the molecule `COC(=O)N[C@H](C(=O)N[C@@H](Cc1ccccc1)[C@@H](O)CN(Cc1ccc(-c2ccccn2)cc1)NC(=O)[C@@H](NC(=O)OC)C(C)(C)C)C(C)(C)C` [ATV, atazanavir], the Ki – broadly, a measure of affinity in units of concentration, obtained from inhibition or displacement – in [4] came out at 703 ± 79 nM. The “Increase of M^pro's Km by the inhibitor” value in series [4] (2.5 μM ATV versus absence) is “more than sixfold”. In [4] (Vmax not different, Km increased), the “Inhibition profile (mechanism)” value is given as “competitive inhibition profile”. The “Maximum velocity (Vmax) of M^pro” value in series [4] (in the presence of 2.5 μM ATV, substrate 0–100 μM) amounted to 24.94 ± 3.70 µM/min. For the same molecule, in series [5] (60 mg/kg oral daily), the “Body weight, treated versus untreated infected mice” value is given as “not a statical difference”; the “Lung injury (hemorrhage, shrinking of lobe, bronchiole and alveoli), histology” value is given as “reduced”; the “SARS-CoV-2-induced IL-6 levels in the BAL and in the lungs” value is recorded as “reduced”. Besides, in [5] (60 mg/kg oral daily, compared to untreated mice), the “Levels of IL-6, TNF-a, KC and PF4 in the BAL” value was “lower levels”. In addition, in series [5] (mouse, in vivo), the “Animal survival (in words)” value is listed as “statistically significant increase”; the “Cell death (LDH activity) in BAL” value is recorded as “significantly decreased”; the Enhancement of survival was 30%; the “Polymorphonuclear and mononuclear cell counts in BAL” value is on record as “significantly decreased”. Further, the “SARS-CoV-2 RNA levels in BAL” value in [5] (mouse, in vivo) is recorded as “significantly decreased”. In [6], this molecule registered an EC50 of 321 ± 16 nM. The concentration giving a half-maximal response (EC50) in series [6] (Severe acute respiratory syndrome coronavirus 2, Calu-3, 48 h) is 490 ± 20 nM. Besides, it took 312000 ± 8000 nM to reach half-maximal cytotoxicity in series [1] (CC50 at 3 days). Further, the Anti-clotting activity result in series [7] is on record as “could not prevent hemorrhage as an anti-clotting agent”. Besides, in series [8] (Swiss-Webster, mouse, plasma), the AUC (usually the area under the concentration-time curve, a measure of exposure) is 14300 ng·h/mL; the peak concentration (Cmax) (usually the peak of the concentration-time curve) is 7430 ng/mL; the Tmax (usually the time at which the peak concentration occurs) came out at 1 h; the half-life (usually the time needed for the level to fall by half in the phase considered) was 9.9 h. For the same molecule, the “Distribution to the lung” value in [8] (AUC lung versus plasma) is “concentrated in the lung”. Moreover, the “Inhibition of PL^pro (in words)” value in series [9] (0–10 μM) was “did not inhibit; also recorded: above the threshold of in vitro inhibition”. Also, in series [9] (100 nM PL^pro, 25 μM substrate, 45–60 min, 0–10 μM inhibitor, read-out: Morrison's inhibitory constant (Ki)), the Ki is 9870 nM. The molecule further yielded an EC50 in series [3] of 399 ± 20 nM.
